The values below come from US9987264B2, “Method and composition for treating a serotonin receptor-mediated condition” (Vanda Pharmaceuticals Inc., priority 2007, dated 2018).

Data set [1] in a line: DMPK studies, brain radioactivity after [14C]-labelled compound. The format is in vivo. The settings on record: rats treated with [14C]-labelled compound. An excerpt:
4-[3-[4-(6-fluoro-1,2,-benzisoxazol-3 -yl)-1-piperidinyl]propoxyl]-3-methoxy-benzoic acid appears not to cross the blood-brain barrier. Specifically, in DMPK studies using rats treated with [14C] […] Therefore, 4-[3-[4-(6-fluoro-1,2,-benzisoxazol-3-yl)-1-piperidinyl]propoxyl]-3-methoxy-benzoic acid is particularly useful in conditions that are not mediated, to a substantial degree, by receptors in the brain.

A further data set deals with human 5HT2A receptor (Homo sapiens, UniProt P28223). Kind of data set: radioligand binding study, human 5HT2A receptor. From the text: In a radioligand binding study, 4-[3-[4-(6-fluoro-1,2,-benzisoxazol-3-yl)-1-piperidinyl]propoxy]-3-methoxy-benzoic acid had the following activity against the human 5HT2A receptor: […]
Another data set relates to platelet rich plasma. Kind of data set: platelet aggregation assay (ADP-induced, serotonin-potentiated). The format is cell-based, albino rabbits. The settings on record: Oryctolagus cuniculus. Here is the method: In this assay, platelet rich plasma was obtained from albino rabbits. Platelet aggregation was induced in the presence of 3 μM adenosine diphosphate (ADP) and was potentiated by the addition of 10 μM serotonin. 4-[3-[4-(6-fluoro-1,2,-benzisoxazol-3-yl)-1-piperidinyl]propoxyl]-3-methoxy-benzoic acid inhibited the platelet aggregation in the presence of serotonin within 5 minutes, by 30, 50, 60, and 79% at the concentrations of 6 μM, 60 μM, 0.6 mM, and 1 mM, respectively.

Chain of human 5HT2A receptor (P28223 whole entry): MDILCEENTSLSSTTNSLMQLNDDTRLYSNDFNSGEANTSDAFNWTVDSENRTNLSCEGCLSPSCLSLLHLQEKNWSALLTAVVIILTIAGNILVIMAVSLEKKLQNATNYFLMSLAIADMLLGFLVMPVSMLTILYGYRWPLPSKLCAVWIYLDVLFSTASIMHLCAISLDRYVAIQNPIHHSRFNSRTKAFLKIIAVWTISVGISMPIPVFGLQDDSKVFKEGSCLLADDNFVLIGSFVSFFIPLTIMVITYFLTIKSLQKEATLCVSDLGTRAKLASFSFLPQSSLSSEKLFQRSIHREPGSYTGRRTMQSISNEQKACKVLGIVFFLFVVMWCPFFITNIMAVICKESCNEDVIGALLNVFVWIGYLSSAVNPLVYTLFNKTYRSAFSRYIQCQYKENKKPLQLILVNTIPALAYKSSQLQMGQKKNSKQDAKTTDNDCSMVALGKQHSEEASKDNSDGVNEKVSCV

`COc1cc(C(=O)O)ccc1OCCCN1CCC(c2noc3cc(F)ccc23)CC1` [4-[3-[4-(6-fluoro-1,2,-benzisoxazol-3-yl)-1-piperidinyl]propoxy]-3-methoxy-benzoic acid]: in data set [1], the “radioactivity concentrations in the brain” value was “none of the animals had measurable radioactivity concentrations in the brain”. At human 5HT2A receptor, the IC50 came to 13.7 nM, affinity was put at a Ki of 3.91 nM, the inhibition at 0.03 µM amounted to 66% and the nH is given as 1.05 +/− .091. In the data set with platelet rich plasma (5 min, 6 μM, 3 μM ADP + 10 μM serotonin, within 5 minutes), the inhibition at 6 µM was 30%. Further, in the data set on platelet rich plasma (5 min, 60 μM, 3 μM ADP + 10 μM serotonin, within 5 minutes), the inhibition at 60 µM worked out at 50%. The inhibition at 600 µM in the data set with platelet rich plasma (5 min, 0.6 mM, 3 μM ADP + 10 μM serotonin, within 5 minutes) turned out to be 60%. Besides, the inhibition at 1000 µM in the data set with platelet rich plasma (5 min, 1 mM, 3 μM ADP + 10 μM serotonin, within 5 minutes) amounted to 79%.

On to `O=C(c1ccc(F)cc1)C1CCN(CCn2c(=O)[nH]c3ccccc3c2=O)CC1` [Ketanserin, reference compound], for which the inhibition at 100 µM in the data set on platelet rich plasma (100 μM, positive control, same conditions, read-out: inhibitory effect on platelet aggregation) stood at 55%.
